# Data as given in patent publication US8058039B2 (North American Bioproducts Corporation, priority 2008, dated 2011).
# Where “and” joins values, the source holds several entries; their conditions need not be identical. Equal entries are not always repeated.
# What was measured:
# Format in all cases: cell-based
# [1] = tested on: Pediococcus test organism along with “industry normal” Lactobacillus; experiment: Virginiamycin (V100) vs. Erythromycin (V200) comparative efficacy analysis, 24 well plate growth test in MRS broth; conditions: 33° C., read at 24 and 48 hours
# Description: (§1) The antibiotics currently most often used at alcohol production plants are either Penicillin-based or Virginiamycin-based. This example compares the use of Bactenix V200, an Erythromycin-based antibiotic versus V100, a Virginiamycin-based antibiotic also available from NABC to control Pediococcus test organism along with “industry normal” Lactobacillus. The trial uses an alcohol water mixture to assure total dissolving of antibiotics. This assures that the correct concentrations of antibiotics are going into the test wells and thereby preventing under dosing during the trial. All bacteria tested were industry specific isolates that were obtained from actual mash samples from alcohol production plants. The trial was set up as follows: • 1. Dissolve 0.1 g of each of the antibiotics in 1 ml water and then add 5 ml of ethanol, vortex and bring up to 10 ml with sterile water to from a suspension. • 2. Dilute the previous suspension 1:10 with sterile water. This gives a one mg/ml concentration. • 3. Filter the suspension by running through a 0.2 μm syringe filter. • 4. Add antibiotics to MRS (DeMan, Rogosa and Sharpe) broth at the concentrations required for the test. • 5. Take two μl of a fresh 24-hour culture of the target organisms and add to the corresponding empty wells in a pre-labeled 24 well tissue culture plate. • 6. Add one ml of the appropriate antibiotic media to each well of the plate. • 7. Incubate at 33° C. for 24 hours. • 8. Read plates for bacterial growth and re-incubate the plates at 33° C. • 9. After 48 hours read and report the final results.
# [2] = tested on: bacteria encountered in ethanol production; experiment: Alcohol production plant trial, fermentor drop data (corn, batch fermentation)
# Method: This trial was conducted at a 50 million gallon per year (m/g/y) dry grind fuel alcohol production facility utilizing corn as a fermentation substrate. Batch yeast propagation and fermentation process were utilized. Antimicrobials were added to the fermentor during the fill cycle at approximately 30% fill. No other changes were made to the process or chemical additions that would influence the fermentation kinetics monitored during 3 sets of fermentor batches listed below. The fermentation data was accumulated at the end (drop) of the fermentation process for each of the fermentors. […] See results in Table 2. […] See results in Table 3. […] See results in Table 4.
# [3] = tested on: Saccharomyces cerevisea yeast (BioFerm XR yeast); experiment: Impact of Erythromycin on the function and replication of yeast during lab scale corn mash fermentation; conditions: for Cell Count: number of cells in a given area
# Method: A study was conducted to determine if the fermentation antimicrobial Erythromycin, interfered with cell growth and the fermentation function of Saccharomyces cerevisea yeast used in the fermentation phase of the production of fuel ethanol. […] This study looked at the ability of yeast to replicate and ferment a corn mash substrate with and without the presence of Erythromycin.
# This study was set up in a series of fermentation vessels. All antibiotic concentrations were tested in triplicate. Cell counts were done on one flask for each treatment at 24 and 48 hours and final testing of the fermentation reactions by HPLC was performed at 48 hours. The experiment was set as follows:
# 1. Antibiotic solutions were prepared to provide a sterile 1 and 10 μg/ml solutions.
# 2. Antibiotic solutions tested were as follows:
# A. Control (NA), no antibiotic
# 3. Fermentations were set up using 31% solids corn mash using saccharifying enzymes and the following procedure:
# A. Yeast Conditioning: • 1. Add 2 g yeast to 10 mil sterile water for each 3 flasks to test, (10 g yeast to 50 ml water) into a sterile 250 ml flask and place in water bath set to 100° F. • 2. Incubate at 100° F. for 30 minutes with occasional mixing. • 3. Remove flasks from water bath and divide suspension between the all flasks for the trial.
# B. Fermentation Procedure • 1. To prepared mash, add the following. • a. Add 0.58 g urea/liter mash and mix. • b. Add 0.2 ml GA per liter and mix. • 2. Remove sample for background HPLC testing. • 3. Add antibiotic solution to labeled sterile 250 ml flasks. • 4. Add hydrated yeast suspension to mash and mix well. • 5. Add sterile stir bar to each flask and add about 150 ml mash into each 250 ml flask for a total of 12 flasks. • Three flasks for each trial as follows: • a. First group, no antibiotic (NA) flasks 1-3 • b. […] Cover each flask with a gas trap in a sterilized stopper. • 7. Place in a 33° C. water bath with continuous mixing at 280 rpm at 75% power. • a. Turn power on to the magnetic stirrers after placing the flasks onto the platforms to move the stir bars; make sure that mixing is occurring in the flasks. • 8. Remove sample at 24 hours and perform cell count. • 9. Incubate sample for 48 hours, enough time for complete fermentation • 10. Collect samples at the following times for HPLC testing: • 0 hours (one per treatment); 24 hours; 48 hours • Perform 48 hour cell count on same flask as for 24 hour count.
# [4] = tested on: industry obtained Pediococcus bacteria; experiment: Virginiamycin (V100) vs. Erythromycin (V200) comparative efficacy analysis, 24 well plate growth test in MRS broth; conditions: 33° C., read at 24 and 48 hours
# Description: as §1
# [5] = 0.5 ppm Erythromycin vs 0.5 ppm Virginiamycin batches
# [6] = Set 2 vs Sets 1 and 3, same amount of antibiotic
# [7] = Set 2 “Erythromycin trial”, 0.5 ppm Erythromycin, at drop
# [8] = Set 1 “Pre Erythromycin trial”, 0.5 ppm Virginiamycin, at drop
# [9] = Set 3 “Post Erythromycin test”, 0.5 ppm Virginiamycin, at drop
# [10] = Set 3 “Post Erythromycin test”, 0.5 ppm Virginiamycin, single fermentor batch at drop
compound,measurement,setting,value
CC[C@H]1OC(=O)[C@H](C)[C@@H](O[C@H]2C[C@@](C)(OC)[C@@H](O)[C@H](C)O2)[C@H](C)[C@@H](O[C@@H]2O[C@H](C)C[C@H](N(C)C)[C@H]2O)[C@](C)(O)C[C@@H](C)C(=O)[C@H](C)[C@@H](O)[C@]1(C)O [Erythromycin],concentration effective against all organisms tested,[1],0.5 ppm
same,decrease of lactic acid production during the erythromycin trial,[2]; [5],0.23%
same,increase of ethanol production during the erythromycin trial,[2]; [5],0.17%
same,production increase of ethanol per fermentor,[2]; [5],816 gallons of ethanol per fermentor
same,final ethanol production compared to Virginiamycin fermentors,[2]; [6],increase in final ethanol production
same,glucose utilized compared to Virginiamycin fermentors,[2]; [6],utilized the same amount of glucose
same,lactic acid compared to Virginiamycin fermentors,[2]; [6],decrease in lactic acid
same,"Acetic %, 27 batch average",[2]; [7],0.04%
same,"EtOH %, 27 batch average",[2]; [7],15.84%
same,"Glucose %, 27 batch average",[2]; [7],0.30%
same,"Lactic %, 27 batch average",[2]; [7],0.27%
same,Acetic %,"[2]; Set 2 “Erythromycin trial”, 0.5 ppm Erythromycin, single fermentor batch at drop",0.03% and 0.04% and 0.05% and 0.02% and 0.06%
same,% Budding,"[3]; Erythromycin 5 ppm, 24 hr",8%
same,% Viable,"[3]; Erythromycin 5 ppm, 24 hr",82%
same,Cell Count,"[3]; Erythromycin 5 ppm, 24 hr",467
same,% Budding,"[3]; Erythromycin 5 ppm, 48 hr",5%
same,% Viable,"[3]; Erythromycin 5 ppm, 48 hr",63%
same,Cell Count,"[3]; Erythromycin 5 ppm, 48 hr",430
same,% Budding,"[3]; Erythromycin 10 ppm, 24 hr",8%
same,% Viable,"[3]; Erythromycin 10 ppm, 24 hr",80%
same,Cell Count,"[3]; Erythromycin 10 ppm, 24 hr",434
same,% Budding,"[3]; Erythromycin 10 ppm, 48 hr",5%
same,% Viable,"[3]; Erythromycin 10 ppm, 48 hr",61%
same,Cell Count,"[3]; Erythromycin 10 ppm, 48 hr",454
same,% Budding,"[3]; Erythromycin 20 ppm, 24 hr",7%
same,% Viable,"[3]; Erythromycin 20 ppm, 24 hr",85%
same,Cell Count,"[3]; Erythromycin 20 ppm, 24 hr",431
same,% Budding,"[3]; Erythromycin 20 ppm, 48 hr",4%
same,% Viable,"[3]; Erythromycin 20 ppm, 48 hr",62%
same,Cell Count,"[3]; Erythromycin 20 ppm, 48 hr",446
same,yeast growth with Erythromycin present vs without,[3]; at 48 hr,marginal better
same,adverse effect on the yeast,[3]; used up to 20 ppm,no discernable adverse effect
Virginiamycin,effectiveness against all organisms tested,[1],not effective against all organisms tested
same,inclusion rate up to which Pediococcus was not controlled,[4],> 3.0 ppm
same,"Acetic %, 28 batch average",[2]; [8],0.04%
same,"EtOH %, 28 batch average",[2]; [8],15.67%
same,"Glucose %, 28 batch average",[2]; [8],0.29%
same,"Lactic %, 28 batch average",[2]; [8],0.50%
same,Acetic %,"[2]; Set 1 “Pre Erythromycin trial”, 0.5 ppm Virginiamycin, single fermentor batch at drop",0.02% and 0.03% and 0.04% and 0.13% and 0.05%
same,"Acetic %, 8 batch average",[2]; [9],0.04%
same,"EtOH %, 8 batch average",[2]; [9],15.58%
same,"Glucose %, 8 batch average",[2]; [9],0.32%
same,"Lactic %, 8 batch average",[2]; [9],0.47%
same,Acetic %,[2]; [10],0.04% and 0.03% and 0.05%
same,EtOH %,[2]; [10],15.77% and 15.53% and 15.28% and 15.73% and 15.78% and 15.5% and 15.56% and 15.52%
same,Glucose %,[2]; [10],0.35% and 0.29% and 0.31% and 0.33% and 0.3% and 0.32%
same,Lactic %,[2]; [10],0.44% and 0.54% and 0.70% and 0.38% and 0.43% and 0.50% and 0.40%
